The subject of this assay is thin-cap fibroatheroma (TCFA). Nature of the assay: drug-eluting stent implants in hypercholesterolemic rabbit model of human thin-cap fibroatheroma. Format: in vivo. To be noted: 28 days; compared to unstented (de novo) TCFAs. The protocol: The MULTI-LINK Penta™ 13 mm was the platform for all DES and metallic stents. Both a slow release and fast release formulation of each drug were tested and the results were evaluated at 28 days. In both FIGS. 4 and 5, the test results concerning the slow release formulation were labeled with “s”, the test results concerning the fast release formulation were labeled with “f”, and the test results data concerning a formulation having both a slow and a fast release of an agent are labeled with “s+f.”

These results are taken from patent publication US8017140B2, “Drug-delivery stent formulations for restenosis and vulnerable plaque” (Advanced Cardiovascular System, Inc., priority 2004, dated 2011).

With `C[C@]12CC[C@@H]3c4ccc(O)cc4CC[C@H]3[C@@H]1CC[C@@H]2O` [beta-estradiol, 17-beta-estradiol], the percent lipid area entry is given as “reduce” and the “total fibrous cap thickness” value is “increase”.
The matching figures for `CO[C@H]1C[C@@H]2CC[C@@H](C)[C@@](O)(O2)C(=O)C(=O)N2CCCC[C@H]2C(=O)O[C@H]([C@H](C)C[C@@H]2CC[C@@H](OCCO)[C@H](OC)C2)CC(=O)[C@H](C)/C=C(\C)[C@@H](O)[C@@H](OC)C(=O)[C@H](C)C[C@H](C)/C=C/C=C/C=C/1C` [everolimus, 40-O-(2-hydroxy)ethyl-rapamycin]: “reduce” and “increase”.
